Assay results: paper PMC6388407 (Toxicological sciences : an official journal of the Society …, 2018)
Like-named read-outs stand apart in the source and are kept apart here.

Assays:
[1] = test system: L5178Y mouse lymphoma cells; test: MTS cell proliferation assay; assay type: cell-based; details: 4-h treatment; for reduction in cell viability, MTS assay: at the lowest concentrations tested; for IC20: read-out: IC20, MTS assay, L5178Y cells
[2] = MTS cell proliferation assay; assay type: cell-based, mouse; details: mouse
[3] = test system: Tk mutants of L5178Y mouse lymphoma cells; test: LOH evaluation of Tk mutants from the MLA; assay type: cell-based; details: with vs without S9, p < .05
[4] = test system: thymidine kinase (Tk) gene of the L5178Y/Tk+/− −3.7.2C mouse lymphoma cell line; test: Mouse lymphoma assay; assay type: cell-based; details: for BMDL10, MLA without S9: lower limit of the 10% BMD, Hill model of PROAST, MF data; for Ranking, MLA without S9: potency ranking by BMDL10, 1 = most potent
[5] = test system: Chinese hamster ovary AS52 cells; details: CHO AS52 cells; ref DeGraff et al., 1992; cited from earlier work
[6] = test system: L5178Y mouse lymphoma cells; test: Alkaline Comet assay; assay type: cell-based; details: for lowest concentration that induced significant DNA damage / highest percentage of DNA in tail: 4-h treatment; for lowest concentration that induced significant DNA damage: absence of S9; for highest percentage of DNA in tail: absence of S9, background approximately 5%; for BMDL10, Comet assay: lower limit of the 10% BMD, Hill model of PROAST, %DNA in tail data, without S9
Cellular ATP level assay = assay type: cell-based, mouse; details: mouse, L5178Y mouse lymphoma cells
[7] = test system: thymidine kinase (Tk) gene of the L5178Y/Tk+/− −3.7.2C mouse lymphoma cell line; test: Mouse lymphoma assay; assay type: cell-based; details: for BMDL10, MLA with S9: lower limit of the 10% BMD, Hill model of PROAST, MF data; for Ranking, MLA with S9: potency ranking by BMDL10, 1 = most potent
[8] = CellTiter-Blue cell viability assay; assay type: cell-based, mouse; details: mouse, L5178Y mouse lymphoma cells
Chinese hamster cells = details: ref Mitchell et al., 1991, cited from earlier work
[9] = test system: L5178Y mouse lymphoma cells; test: Cellular ATP level assay; assay type: cell-based; details: read-out: IC20, ATP assay; L5178Y cells, 4-h treatment
[10] = test system: L5178Y mouse lymphoma cells; test: CellTiter-Blue cell viability assay; assay type: cell-based; details: read-out: IC20, Blue assay; L5178Y cells, 4-h treatment
[11] = test system: thymidine kinase (Tk) gene of the L5178Y/Tk+/− −3.7.2C mouse lymphoma cell line; details: with S9, at concentration that produced 10%–20% RTG; ref Guo et al., 2013; cited from earlier work
[12] = test system: TK6 human lymphoblastoid cells; details: ref Guo et al., 2013; cited from earlier work
[13] = test system: thymidine kinase (Tk) gene of the L5178Y/Tk+/− −3.7.2C mouse lymphoma cell line; details: ref Guo et al., 2013, cited from earlier work
[14] = absence of S9, at the cytotoxicity limit for the MLA
[15] = without S9, at concentration that produced 10%–20% RTG

| SMILES | reduction in cell viability, MTS assay [1] | effect of metabolic activation on mutational spectra (LOH) [3] | BMDL10, MLA without S9 [4] | Ranking, MLA without S9 [4] | lowest concentration that induced significant DNA damage [6] | highest percentage of DNA in tail [6] | BMDL10, Comet assay [6] | BMDL10, MLA with S9 [7] | Ranking, MLA with S9 [7] | IC20 [1] | mutant frequency (MF) [4, 14] | IC20 [9] | IC20 [10] | also measured |
| --- | --- | --- | --- | --- | --- | --- | --- | --- | --- | --- | --- | --- | --- | --- |
| CC1(C)CC(O)CC(C)(C)N1[O] [4-hydroxy-TEMPO] | approximately 50% | significantly altered | 1.300 | 4 | 4 mM | 21% | 1.612 | 1.024 | 4 | – | – | – | – | IC20 at 4 h [2]: 356 µM; mutagenicity and toxicity [5]: not mutagenic or toxic; IC20 at 4 h (Cellular ATP level assay): 6390 µM; IC20 at 4 h [8]: 1780 µM; radiation protection factor (Chinese hamster cells; 10 mM for 10 min prior to X-irradiation): 1.3; radiation protection factor (Chinese hamster cells; 100 mM for 10 min prior to X-irradiation): 2.5 |
| COC1CC(C)(C)N([O])C(C)(C)C1 [4-methoxy-TEMPO] | approximately 50% | – | 0.756 | 2 | 6 mM | 13% | 3.358 | 0.770 | 3 | 30 µM | 537 × 10^−6 | 3870 µM | 2580 µM | mutant frequency (MF) [4, 15]: 508 per million cells; mutant frequency (MF) ([7]; with S9, at concentration that produced 10%–20% RTG): 961 per million cells |
| CC1(C)CC(=O)CC(C)(C)N1[O] [4-oxo-TEMPO] | – | – | 0.661 | 1 | 3 mM | 14% | 1.114 | 0.058 | 1 | 1550 µM | 584 × 10^−6 | 1730 µM | 1950 µM | – |
| CC1(C)CCCC(C)(C)N1[O] [TEMPO, 2,2,6,6-tetramethylphiperidine-1-oxyl] | approximately 50% | significantly altered | 0.981 | 3 | 2 mM | 28% | 0.454 | 0.257 | 2 | 11 µM | – | 1920 µM | 4970 µM | mutant frequency (MF) [11]: 502 per million cells; micronucleus induction [12]: induced micronuclei; mutant frequency (MF) [13, 14]: 208 × 10^−6; MLA result ([13]; earlier study, with and without 1% S9): mutagenic; mutant frequency (MF) [13, 15]: 208 per million cells |
